Measured values from patent US20240277670A1, “SAFE USE OF MMP-12 INHIBITOR” (Foresee Pharmaceuticals Co., Ltd., priority 2021, published 2024).
Entries after “also recorded” stand apart in the source; their conditions may differ. Read-outs that look alike come from different tables or passages of the source.

Legend:
Type in all cases: in vivo, human
[1] = Single ascending dose (SAD) study, safety and tolerability
Procedure: Eight cohorts of eight subjects each (six on active and two on placebo) were enrolled. Two different oral formulations of the compound of formula (I) were tested. The initial formulation was neat active pharmaceutical ingredient (API) filled in oral capsules of the compound of formula (I) (API-in-Capsule) which was tested at three dose levels: 200 mg, 400 mg, and 800 mg. Subsequently, an improved oral formulation was tested, the amorphous solid dispersion (ASD) of the compound of formula (I) (ASD-in-Capsule) at five dose levels: 50 mg, 100 mg, 200 mg, 350 mg, and 450 mg (FIG. 1).
(§1) Safety and tolerability were assessed at pre-specified timepoints throughout the studies by AEs reporting, vital signs measurements, physical examination, laboratory tests, and ECG examinations.
(§2) Safety and tolerability data were evaluated for the treated population (all participants who took at least one dose of study medications). […] Descriptive statistics were used to evaluate the safety and tolerability data and for plasma concentrations and PK parameters of the compound of formula (I).

[2] = Food effect (FE) part, safety and tolerability; details: for Adverse events possibly-related to drug administration: 200 mg, ASD formulation
Procedure: (§3) In this part, eight subjects received 200 mg ASD-in-Capsule orally as a single dose in a randomized way, once under fasting conditions and once after the intake of a high fat breakfast, with a wash-out period of one week between successive dosing (FIG. 4).
as §1
as §2, with “evaluate the for safety and” for “evaluate the safety and”

[3] = Multiple ascending dose (MAD) part, safety and tolerability; details: for Adverse events possibly-related to drug administration: Multiple ascending dose, ASD formulation
Procedure: Three cohorts of eight subjects each (six on active and two on placebo) were enrolled and received the following treatments orally: 100 mg, 200 mg, and 400 mg ASD-in-Capsule b.i.d. (one dose on Days 1 and 8, twice-daily doses from Days 2 to 7) (FIG. 4).
as §1
as §2, with “evaluate the for safety and” for “evaluate the safety and”

[4] = Food effect (FE) part, plasma pharmacokinetics; details: for AUC / AUC(0-inf) / Cmax / AUC(0-t) / half-life / Vd/F / Tmax: human, plasma, po, 200 mg; for AUC: read-out: AUC0- GM; for Vd/F: read-out: Vz/F; for Tmax: median
Procedure: as §3
Blood samples were collected post-dosing on Day 1 (at 0.5, 1, 2, 3, 4, 6, 8, 12, and 16 hours) and Day 8 (at 0.5, 1, 2, 3, 4, 6, 8, 10, 12, 16, 20, 24, 30, 36, and 48 hours) as well as immediately pre-morning dose on Days 2-7 and 2 hours post-morning dose on Days 4 and 6. Within 15 minutes of collection, blood samples were centrifuged at 2000 rpm for 10 minutes at 4° C., and, subsequently, the plasma was aliquoted, frozen, and stored at −70° C. pending PK analyses.
The samples were subjected to liquid chromatography followed by analyses by tandem mass spectrometry. The lower limit of quantification for the compound of formula (I) was 5 ng/mL.
The plasma PK parameters were derived by non-compartmental analyses using Phoenix® WinNonlin® version 6.3 or higher (Pharsight Corporation Inc., Mountain View, CA, USA). PK variables were summarized using arithmetic mean, standard deviation, median, minimum, maximum, the percent coefficient of variation, geometric mean, and a two-sided 95% confidence limit of the arithmetic mean and the geometric mean.
For the evaluations of food effect on the PK profile of the compound of formula (I), the analysis of variance (ANOVA) model included sequence, treatment, and period as fixed effects and subject nested within sequence as a random effect using the SASR mixed model procedure. Each ANOVA included calculation of Least Squares Means (LSM), the difference between LSM under fed condition (Test) over fasted condition (Reference), and the standard error associated with this difference.

[5] = 200 mg single oral dose, fed over fasted, geometric least-squares mean ratio
[6] = Treatment D: single oral dose 200 mg ASD-in-Capsule, fasted, mean
[7] = Treatment E: single oral dose 200 mg ASD-in-Capsule, fed (high-fat, high-calorie breakfast), mean

- AUC0- GMR Treatment E/D [4, 5]: 103.42 percentage
- AUC0-inf GMR Treatment E/D [4, 5]: 102.76 percentage
- Cmax GMR Treatment E/D [4, 5]: 74.53 percentage
- CL/F [4, 6]: 32.3 L/h
- Kel [4, 6]: 0.0796 h⁻¹
- CL/F [4, 7]: 32.3 L/h
- Kel [4, 7]: 0.0917 h⁻¹
- AUC ([4]; Treatment D: 200 mg single oral dose, fasted, geometric least-squares mean): 6260 ng·h/mL
- AUC(0-inf) ([4]; Treatment D: 200 mg single oral dose, fasted, geometric least-squares mean, read-out: AUC0-inf GM): 6400 ng·h/mL
- Cmax ([4]; Treatment D: 200 mg single oral dose, fasted, geometric least-squares mean, read-out: Cmax GM): 1020 ng/mL
- AUC(0-t) [4, 6]: 6490 ng·h/mL
- half-life [4, 6]: 562 min
- AUC(0-inf) ([4]; Treatment D: single oral dose 200 mg ASD-in-Capsule, fasted, mean, read-out: AUC0-inf): 6620 ng·h/mL
- Cmax ([4]; Treatment D: single oral dose 200 mg ASD-in-Capsule, fasted, mean, read-out: Cmax): 1050 ng/mL
- Vd/F [4, 6]: 446 L
- Tmax ([4]; Treatment D: single oral dose 200 mg ASD-in-Capsule, fasted): 1 h
- AUC ([4]; Treatment E: 200 mg single oral dose, fed, geometric least-squares mean): 6480 ng·h/mL
- AUC(0-inf) ([4]; Treatment E: 200 mg single oral dose, fed, geometric least-squares mean, read-out: AUC0-inf GM): 6580 ng·h/mL
- Cmax ([4]; Treatment E: 200 mg single oral dose, fed, geometric least-squares mean, read-out: Cmax GM): 764 ng/mL
- AUC(0-t) [4, 7]: 6800 ng·h/mL
- half-life [4, 7]: 485 min
- AUC(0-inf) ([4]; Treatment E: single oral dose 200 mg ASD-in-Capsule, fed (high-fat, high-calorie breakfast), mean, read-out: AUC0-inf): 6900 ng·h/mL
- Cmax ([4]; Treatment E: single oral dose 200 mg ASD-in-Capsule, fed (high-fat, high-calorie breakfast), mean, read-out: Cmax): 787 ng/mL
- Vd/F [4, 7]: 383 L
- Tmax ([4]; Treatment E: single oral dose 200 mg ASD-in-Capsule, fed (high-fat, high-calorie breakfast)): 2.5 h
SMILES: Cc1cccc(COc2ccc(Sc3ccoc3C3NC(=O)NC3=O)cc2)c1 (stereo not shown) [compound of formula (I)]
- Safety and tolerability, overall ([1]; across all dose levels studied): safe and generally well-tolerated
- Severe or serious AEs ([1]; all dose levels and both formulations): No severe or serious AEs were reported
- Changes from baseline in weight, vital signs, physical examination, laboratory or ECG data ([1]; any time point): No clinically relevant changes
- Adverse events possibly-related to drug administration ([2]; Food effect fasting status): headache
- Adverse events possibly-related to drug administration ([2]; Food effect fed status): headache
- Total number of AEs possibly related to treatment ([2]; food effect part, in one subject): two
- Total number of AEs possibly related to treatment ([3]; MAD study, all dose levels): seven
- Adverse events possibly-related to drug administration ([3]; 100 mg): fatigue; also recorded: cough
- Adverse events possibly-related to drug administration ([3]; 200 mg): eye irritation; also recorded: erythema; also recorded: dizziness; also recorded: skin rash
- Severe or serious AEs ([3]; Study II (MAD and FE parts)): No severe or serious AEs were reported
- Changes from baseline in weight, vital signs, physical examination, laboratory or ECG data ([3]; Study II (MAD and FE parts), any time point): No clinically relevant changes
- Safety and tolerability, overall ([3]; across all dose levels and dosing regimens studied): safe and generally well-tolerated
